# Earlier results in article PMC10205807, “Cross-species comparison in nonclinical pharmacokinetics of lenvatinib by a simple HPLC with ultraviolet detection” (Scientific Reports, 2023).
# Like-named read-outs stand apart in the source and are kept apart here.
# What was measured:
# [1] = set-up: method as in PMID 28115222; details: dogs; cited from earlier work
# [2] = set-up: method as in PMID 28115222; details: mice; cited from earlier work
# [3] = set-up: method as in PMID 28115222; details: rats; cited from earlier work
# [4] = set-up: method as in PMID 30514402; details: mice; cited from earlier work
# [5] = set-up: method as in PMID 30514402; details: dogs; cited from earlier work
# [6] = set-up: method as in PMID 30514402; details: monkeys; cited from earlier work
# [7] = set-up: method as in PMID 29620050; details: male rats, intravenous; cited from earlier work
# [8] = set-up: method as in PMID 29620050; details: dogs, intravenous; cited from earlier work
compound,measurement,setting,value
CCOc1cc2ncc(C#N)c(Nc3ccc(OCc4ccccn4)c(Cl)c3)c2cc1NC(=O)/C=C/[C@H]1CCCN1C [pyrotinib],CLtot,[1],28 mL/min/kg
same,F,[1],20.0%
same,Vdss,[1],8.157 L/kg
same,CLtot,[2],37.2 mL/min/kg
same,F,[2],20.6%
same,Vdss,[2],5.027 L/kg
same,CLtot,[3],3.5 mL/min/kg
same,F,[3],43.5%
same,Vdss,[3],1.35 L/kg
Cc1cn(-c2cc(NC(=O)c3ccc(C)c(Nc4nccc(-c5cccnc5)n4)c3)cc(C(F)(F)F)c2)cn1 [nilotinib],CLtot,[4],2.18 mL/min/kg
same,Oral bioavailability,[4],50%
same,Vdss,[4],0.29 L/kg
same,CLtot,[5],3.17 mL/min/kg
same,Oral bioavailability,[5],24%
same,Vdss,[5],1.157 L/kg
same,CLtot,[6],10.6 mL/min/kg
same,Oral bioavailability,[6],16%
same,Vdss,[6],5.737 L/kg
COc1cc2c(Oc3ccc4[nH]c(C)cc4c3F)ccnc2cc1OCC1(N)CC1 [anlotinib],CLtot,[7],106 mL/min/kg
same,Vdss,[7],25.4 L/kg
same,CLtot,[8],6.33 mL/min/kg
same,Vdss,[8],6.8 L/kg
